Experimental data reported in patent US10899737B2, “Piperazine carbamates and methods of making and using same” (Lundbeck La Jolla Research Center, Inc., priority 2016, dated 2021).

Columns and labels:
[1] = biological target: T1, ABHD6 (Homo sapiens, UniProt Q9BV23); assay: In vitro competitive activity-based protein profiling (human), ABHD6; type: biochemical; conditions: human PC3
T1 construct: Proteomes (human prefrontal cortex or cell membrane fractions); endogenous in cells; human prefrontal cortex
T1 sequence (Q9BV23 1-337): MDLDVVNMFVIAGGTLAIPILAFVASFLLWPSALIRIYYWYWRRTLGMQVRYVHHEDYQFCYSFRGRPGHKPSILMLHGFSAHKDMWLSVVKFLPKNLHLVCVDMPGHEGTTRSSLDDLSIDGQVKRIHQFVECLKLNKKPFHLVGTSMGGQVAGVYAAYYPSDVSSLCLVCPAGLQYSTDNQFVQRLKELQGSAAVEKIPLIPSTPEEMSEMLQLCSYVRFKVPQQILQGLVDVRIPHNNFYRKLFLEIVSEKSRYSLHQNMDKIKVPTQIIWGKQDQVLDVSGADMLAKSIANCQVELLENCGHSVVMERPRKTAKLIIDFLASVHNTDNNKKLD
Outline: (§1)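 Human prefrontal cortex or cell membrane proteomes (1.0-2.0 mg/mL protein) preincubated 30 min at 37° C with inhibitor, then labeled 30 min RT with FP-Rh or JW912 probe. After SDS-PAGE, activity taken from fluorescent band intensity for each enzyme.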

[2] = biological target: T2, MAGL (Mus musculus, UniProt O35678); assay: In vitro competitive activity-based protein profiling (mouse), MAGL; type: biochemical; conditions: for inhibition at 1 µM: 1 μM inhibitor, mouse brain membrane fraction or cell lysates, read-out: MAGL % inh. 1 μM (mouse); for IC50: mouse proteome
T2 construct: Proteomes (mouse brain membrane fraction or cell lysates); from tissue; host or cells: mouse brain membrane fraction or cell lysates
T2 sequence (O35678 1-303): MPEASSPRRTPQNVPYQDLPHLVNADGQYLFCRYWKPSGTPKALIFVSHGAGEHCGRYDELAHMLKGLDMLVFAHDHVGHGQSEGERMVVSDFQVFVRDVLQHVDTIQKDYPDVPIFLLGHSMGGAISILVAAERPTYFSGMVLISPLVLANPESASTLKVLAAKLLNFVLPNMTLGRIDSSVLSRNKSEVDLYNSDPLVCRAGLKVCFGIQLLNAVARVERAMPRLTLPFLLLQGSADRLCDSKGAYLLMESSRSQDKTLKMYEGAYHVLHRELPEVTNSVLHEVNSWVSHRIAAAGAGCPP
Outline: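 Mouse brain membrane fraction or cell lysate proteomes (50 μL, 1.0 mg/mL total protein) were preincubated with inhibitors at varying concentrations for 30 min at 37° C. FP-Rh (1.0 μL, 50 μM in DMSO) was then added for a further 30 min at 37° C. Samples were quenched with 4× SDS loading buffer and resolved by SDS-PAGE. MAGL activity was quantified from fluorescent gel band intensity using ImageJ 1.49 k.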

[3] = biological target: T3, ABHD6 (Mus musculus, UniProt Q8R2Y0); assay: In vitro competitive activity-based protein profiling (mouse), ABHD6; type: biochemical; conditions: 1 μM inhibitor, mouse brain membrane fraction or cell lysates; read-out: ABHD6 % inh. 1 μM (mouse)
T3 construct: Proteomes (mouse brain membrane fraction or cell lysates); from tissue; host or cells: mouse brain membrane fraction or cell lysates
T3 sequence (Q8R2Y0 1-336): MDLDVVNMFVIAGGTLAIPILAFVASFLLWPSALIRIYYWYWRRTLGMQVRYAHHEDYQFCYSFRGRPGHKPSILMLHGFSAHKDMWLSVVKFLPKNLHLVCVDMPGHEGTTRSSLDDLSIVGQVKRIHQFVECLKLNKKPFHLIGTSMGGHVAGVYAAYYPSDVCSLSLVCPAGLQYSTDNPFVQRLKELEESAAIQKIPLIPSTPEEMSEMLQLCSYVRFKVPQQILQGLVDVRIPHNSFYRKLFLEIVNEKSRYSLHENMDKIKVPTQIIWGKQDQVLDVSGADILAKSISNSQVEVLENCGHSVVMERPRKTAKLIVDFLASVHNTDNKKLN
Outline: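 Mouse brain membrane proteome or cell lysate (1.0 mg/mL protein) preincubated 30 min at 37 °C with inhibitor, then labelled 30 min at 37 °C with FP-rhodamine probe. Remaining MAGL and ABHD6 activity quantified by in-gel fluorescence band intensity after SDS-PAGE; values are % inhibition at 1 μM.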

[4] = biological target: T2, MAGL; assay: Mouse brain proteomes from inhibitor treated mice, MAGL inhibition; type: in vivo; conditions: 5 mg/kg oral gavage, C57Bl/6J mouse brain, 4 h following administration; read-out: MAGL % inh. 5 mg/kg (mouse)
Description: Preparation of Mouse Brain Proteomes from Inhibitor Treated Mice.
Inhibitors were administered to wild-type C57Bl/6J by oral gavage in a vehicle of polyethylene glycol. Each animal was sacrificed 4 h following administration and brain proteomes were prepared and analyzed according to previously established methods (See Niphakis, M. J., et al. (2011) ACS Chem. Neurosci. and Long, J. Z., et al. Nat. Chem. Biol. 5:37-44).

[5] = biological target: T4, MAGL (Homo sapiens, UniProt Q99685); assay: In vitro competitive activity-based protein profiling (human), MAGL; type: biochemical; conditions: for inhibition at 1 µM: 1 μM inhibitor, human proteome, 30 min preincubation at 37° C, read-out: MAGL % inh. 1 μM (human); for IC50: human PC3
T4 construct: Proteomes (human prefrontal cortex or cell membrane fractions); from tissue
T4 sequence (Q99685 1-303): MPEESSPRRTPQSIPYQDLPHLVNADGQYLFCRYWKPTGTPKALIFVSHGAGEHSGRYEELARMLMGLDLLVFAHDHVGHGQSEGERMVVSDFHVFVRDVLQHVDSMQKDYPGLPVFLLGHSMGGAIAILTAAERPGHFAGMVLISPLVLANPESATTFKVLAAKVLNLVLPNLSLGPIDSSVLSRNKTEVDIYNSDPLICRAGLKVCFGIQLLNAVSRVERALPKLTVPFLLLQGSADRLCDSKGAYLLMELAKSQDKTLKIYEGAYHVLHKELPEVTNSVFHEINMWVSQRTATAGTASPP
Outline: as §1

SMILES	IC50 [1] [µM]	inhibition at 1 µM [2] [%]	inhibition at 1 µM [3] [%]	inhibition at 5 mg/kg [4] [%]	inhibition at 1 µM [5] [%]	IC50 [5] [µM]	IC50 [2] [µM]
O=C(O)c1ccsc1-c1cc(C(F)(F)F)ccc1CN1CCN(C(=O)OC(C(F)(F)F)C(F)(F)F)CC1 [Example 8, 2-(2-((4-(((1,1,1,3,3,3-Hexafluoropropan-2-yl)oxy)carbonyl)piperazin-1-yl)methyl)-5-(trifluoromethyl)phenyl)thiophene-3-carboxylic Acid]	1 to 10	≥ 75	25 to 50	≥ 75	≥ 75	≤ 0.1	
O=C(O)[C@@H]1CC(c2cc(C(F)(F)F)ccc2CN2CCN(C(=O)OC(C(F)(F)F)C(F)(F)F)CC2)CN1 (stereo partly drawn) [Example 7, (2S)-4-(2-((4-(((1,1,1,3,3,3-Hexafluoropropan-2-yl)oxy)carbonyl)piperazin-1-yl)methyl)-5-(trifluoromethyl)phenyl)pyrrolidine-2-carboxylic Acid]	1 to 10	≥ 75	25 to 50	25 to 50	≥ 75	≤ 0.1	
O=C(O)CN1CCC2(CC1)CCN(c1cc(C(F)(F)F)ccc1CN1CCN(C(=O)OC(C(F)(F)F)C(F)(F)F)CC1)C2 [Example 19, 2-(2-(2-((4-(((1,1,1,3,3,3-Hexafluoropropan-2-yl)oxy)carbonyl)piperazin-1-yl)methyl)-5-(trifluoromethyl)phenyl)-2,8-diazaspiro[4.5]decan-8-yl)acetic Acid]	1 to 10	≥ 75	0 to 25	0 to 25	≥ 75	≤ 0.1	≤ 0.1
O=C(O)CN1CC2CC1CN2c1cc(C(F)(F)F)ccc1CN1CCN(C(=O)OC(C(F)(F)F)C(F)(F)F)CC1 (stereo not shown) [Example 25, 2-(5-(2-((4-(((1,1,1,3,3,3-Hexafluoropropan-2-yl)oxy)carbonyl)piperazin-1-yl)methyl)-5-(trifluoromethyl)phenyl)-2,5-diazabicyclo[2.2.1]heptan-2-yl)acetic Acid]	1 to 10	≥ 75	0 to 25	0 to 25	≥ 75	≤ 0.1	
O=C(O)CN1CCC(c2cc(C(F)(F)F)ccc2CN2CCN(C(=O)OC(C(F)(F)F)C(F)(F)F)CC2)C1 (stereo not shown) [Example 2, 2-(3-(2-((4-(((1,1,1,3,3,3-Hexafluoropropan-2-yl)oxy)carbonyl)piperazin-1-yl)methyl)-5-(trifluoromethyl)phenyl)pyrrolidin-1-yl)acetic Acid]	1 to 10	≥ 75	0 to 25	50 to 75	≥ 75	≤ 0.1	
O=C(O)CN1CCCC12CN(c1cc(C(F)(F)F)ccc1CN1CCN(C(=O)OC(C(F)(F)F)C(F)(F)F)CC1)C2 [Example 24, 2-(2-(2-((4-(((1,1,1,3,3,3-Hexafluoropropan-2-yl)oxy)carbonyl)piperazin-1-yl)methyl)-5-(trifluoromethyl)phenyl)-2,5-diazaspiro[3.4]octan-5-yl)acetic Acid]	1 to 10	≥ 75	0 to 25	≥ 75	≥ 75	≤ 0.1	≤ 0.1
O=C(O)CN1CCC2(C1)CN(c1cc(C(F)(F)F)ccc1CN1CCN(C(=O)OC(C(F)(F)F)C(F)(F)F)CC1)C2 [Example 23, 2-(2-(2-((4-(((1,1,1,3,3,3-Hexafluoropropan-2-yl)oxy)carbonyl)piperazin-1-yl)methyl)-5-(trifluoromethyl)phenyl)-2,6-diazaspiro[3.4]octan-6-yl)acetic Acid]	1 to 10	≥ 75	0 to 25	0 to 25	≥ 75	≤ 0.1	

The next lines start with the values.

IC50 [1] [µM]	inhibition at 1 µM [2] [%]	inhibition at 1 µM [3] [%]	inhibition at 5 mg/kg [4] [%]	inhibition at 1 µM [5] [%]	IC50 [5] [µM]	IC50 [2] [µM]	SMILES
1 to 10	≥ 75	50 to 75	0 to 25	≥ 75	≤ 0.1		O=C(O)[C@@H]1CCCN1C1CCN(c2cc(C(F)(F)F)ccc2CN2CCN(C(=O)OC(C(F)(F)F)C(F)(F)F)CC2)CC1 [Example 64, (1-(2-((4-(((1,1,1,3,3,3-hexafluoropropan-2-yl)oxy)carbonyl)piperazin-1-yl)methyl)-5-(trifluoromethyl)phenyl)piperidin-4-yl)proline]
1 to 10	≥ 75	≥ 75	≥ 75	≥ 75	≤ 0.1		O=C(O)CC1CCN(c2cc(C(F)(F)F)ccc2CN2CCN(C(=O)OC(C(F)(F)F)C(F)(F)F)CC2)CC1 [Example 43, 2-(1-(2-((4-(((1,1,1,3,3,3-hexafluoropropan-2-yl)oxy)carbonyl)piperazin-1-yl)methyl)-5-(trifluoromethyl)phenyl)piperidin-4-yl)acetic acid]
0.1 to 1	≥ 75	≥ 75	25 to 50	≥ 75	≤ 0.1		CC1(C(=O)O)CCN(c2cc(C(F)(F)F)ccc2CN2CCN(C(=O)OC(C(F)(F)F)C(F)(F)F)CC2)C1 (stereo not shown) [Example 55, 1-{2-[(4-{[(1,1,1,3,3,3-hexafluoropropan-2-yl)oxy]carbonyl}piperazin-1-yl)methyl]-5-(trifluoromethyl)phenyl}-3-methylpyrrolidin-3-carboxylic acid]
1 to 10	≥ 75	0 to 25	≥ 75	≥ 75	≤ 0.1		O=C(OC(C(F)(F)F)C(F)(F)F)N1CCN(Cc2ccc(F)cc2C2(C(=O)O)CCCC2)CC1 [Example 40, 1-(5-fluoro-2-((4-(((1,1,1,3,3,3-hexafluoropropan-2-yl)oxy)carbonyl)piperazin-1-yl)methyl)phenyl)cyclopentane-1-carboxylic acid]
1 to 10	≥ 75	50 to 75	≥ 75		≤ 0.1		O=C(OC(C(F)(F)F)C(F)(F)F)N1CCN(Cc2cccc(Cl)c2C2(C(=O)O)CCCC2)CC1 [Example 44, 1-(2-chloro-6-((4-(((1,1,1,3,3,3-hexafluoropropan-2-yl)oxy)carbonyl)piperazin1-yl)methyl)phenyl)cyclopentane-1-carboxylic acid]
